Values after ≈ are worked out from the molar mass of the structure shown.
assay: Solubility of the compound at pH 7.4 by potentiometric titration method; assay type: physicochemical; settings: buffer

Compound | solubility
Cc1c(F)c(N)cc(C(=O)Nc2cc(-n3cc(C(=O)N4CCOCC4)nn3)ccc2N2CCN(C)CC2)c1Cl | 361 µM (≈ 201 µg/mL)
Cc1c(F)c(N)cc(C(=O)Nc2cc(-c3ccc(NC(=O)C4CCOCC4)cc3)ccc2N2CCN(C)CC2)c1Cl | 126 µM (≈ 73.3 µg/mL)
Cc1c(F)c(N)cc(C(=O)Nc2cc(-c3ccc(NC(=O)CCCN)cc3)ccc2N2CCN(C)CC2)c1Cl | 199 µM (≈ 110 µg/mL)
Cc1c(F)c(N)cc(C(=O)Nc2cc(-c3ccc(C(=O)O)cc3)ccc2N2CCN(C)CC2)c1Cl | 40.5 µM (≈ 20.1 µg/mL)
COC(=O)c1ccc(-c2ccc(N3CCN(C)CC3)c(NC(=O)c3cc(N)c(F)c(C)c3Cl)c2)cc1 | 3.7 µM (≈ 1.89 µg/mL)
Cc1c(F)c(N)cc(C(=O)Nc2cc(-n3cc(C(=O)NCCCN4CCOCC4)nn3)ccc2N2CCN(C)CC2)c1Cl | 246 µM (≈ 151 µg/mL)
Cc1c(F)c(N)cc(C(=O)Nc2cc(-c3ccc(NC(=O)C4CCN(C)CC4)cc3)ccc2N2CCN(C)CC2)c1Cl | 3.9 µM (≈ 2.31 µg/mL)
Cc1c(F)c(N)cc(C(=O)Nc2cc(-c3ccc(C(=O)N4CCOCC4)cc3)ccc2N2CCN(C)CC2)c1Cl | 48.2 µM (≈ 27.3 µg/mL)

Continued, values first:

solubility | Compound
349 µM (≈ 170 µg/mL) | Cc1c(F)c(N)cc(C(=O)Nc2cc(-n3cc(C(=O)O)nn3)ccc2N2CCN(C)CC2)c1Cl
343 µM (≈ 201 µg/mL) | Cc1c(F)c(N)cc(C(=O)Nc2cc(-n3cc(C(=O)NC4CCN(C)CC4)nn3)ccc2N2CCN(C)CC2)c1Cl
95.6 µM (≈ 54.6 µg/mL) | Cc1c(F)c(N)cc(C(=O)Nc2cc(-n3cc(C(=O)NC4CCOCC4)nn3)ccc2N2CCN(C)CC2)c1Cl
41.5 µM (≈ 20.8 µg/mL) | COC(=O)c1cn(-c2ccc(N3CCN(C)CC3)c(NC(=O)c3cc(N)c(F)c(C)c3Cl)c2)nn1

— ChEMBL document CHEMBL4831498, “Discovery of a potent MLL1 and WDR5 protein-protein interaction inhibitor with in vivo antitumor activity” (Eur J Med Chem, 2021)
